Reference: ChEMBL document CHEMBL4364299, “Discovery of a Potent Kelch-Like ECH-Associated Protein 1-Nuclear Factor Erythroid 2-Related Factor 2 (Keap1-Nrf2) Protein-Protein Interaction Inhibitor with Natural Proline Structure as a Cytoprotective Agent against Acetaminophen-Induced Hepatotoxicity” (J Med Chem, 2019)
The source made the active and inactive calls. The rule behind the calls is not given here.

Key:
[1] = target: T1, Nuclear factor erythroid 2-related factor 2 (Homo sapiens) (UniProt Q16236); assay: Activation of Nrf2 in human L02 cells assessed as increase in HO-1 mRNA expression measured after 12 hrs by trizol reagent based qRT-PCR analysis; format: cell-based
T1 sequence (whole entry): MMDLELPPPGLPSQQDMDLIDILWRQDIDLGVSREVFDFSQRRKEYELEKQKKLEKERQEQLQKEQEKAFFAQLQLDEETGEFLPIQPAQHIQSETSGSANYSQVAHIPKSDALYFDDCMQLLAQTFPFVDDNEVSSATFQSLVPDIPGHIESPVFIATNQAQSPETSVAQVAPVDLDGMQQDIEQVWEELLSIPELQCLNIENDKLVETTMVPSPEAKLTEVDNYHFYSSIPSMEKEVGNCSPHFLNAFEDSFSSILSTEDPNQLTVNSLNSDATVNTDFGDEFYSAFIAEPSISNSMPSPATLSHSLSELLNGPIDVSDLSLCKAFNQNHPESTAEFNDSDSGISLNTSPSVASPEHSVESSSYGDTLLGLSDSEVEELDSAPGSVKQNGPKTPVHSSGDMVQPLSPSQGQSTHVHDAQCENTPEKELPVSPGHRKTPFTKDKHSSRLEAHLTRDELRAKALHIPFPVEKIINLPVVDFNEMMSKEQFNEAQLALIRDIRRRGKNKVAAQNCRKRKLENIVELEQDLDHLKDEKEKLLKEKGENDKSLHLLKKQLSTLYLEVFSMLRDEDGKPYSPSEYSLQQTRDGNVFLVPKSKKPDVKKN

[2] = target: T1, Nuclear factor erythroid 2-related factor 2 (Homo sapiens); assay: Activation of Nrf2 in human L02 cells harboring control siRNA assessed as increase in NQO-1 expression at 10 uM measured after 10 hrs by Western blot analysis; format: cell-based
L02 [3] = assay: Cytotoxicity against human L02 cells assessed as reduction in cell viability up to 100 uM measured after 48 hrs by MTT assay; format: cell-based; settings: l02, 48 h
[4] = target: T1, Nuclear factor erythroid 2-related factor 2 (Homo sapiens); assay: Activation of Nrf2 in human L02 cells harboring control siRNA assessed as increase in NQO-1 mRNA expression at 10 uM measured after 10 hrs by trizol reagent based qRT-PCR analysis; format: cell-based
L02 [5] = assay: Cytoprotective activity against APAP-induced hepatotoxicity in human L02 cells harboring Nrf2 siRNA assessed as increase in cell viability at 5 to 10 uM preincubated for 12 hrs followed by APAP addition and measured after 24 hrs by MTT assay; format: functional, cell-based
[6] = target: T1, Nuclear factor erythroid 2-related factor 2 (Homo sapiens); assay: Activation of Nrf2 in human L02 cells assessed as increase in NQO-1 expression measured after 12 hrs by Western blot analysis; format: cell-based
Mus musculus [7] = assay: Protection against APAP-induced hepatotoxicity in C57BL/6 mouse assessed as decrease in MDA activity in liver at 10 to 40 mg/kg, ip treated 2 hrs prior to 22 hrs starvation followed by APAP challenge and measured after 6 hrs; format: functional, organism-based
L02 [8] = assay: Cytoprotective activity against APAP-induced oxidative stress in human L02 cells assessed as decrease in MDA activity at 5 to 10 uM preincubated for 12 hrs followed by APAP stimulation and measured after 24 hrs; format: functional, cell-based
L02 [9] = assay: Upregulation of NQO-1 expression in human L02 cells harboring Nrf2 siRNA at 10 uM measured after 10 hrs by Western blot analysis; format: functional, cell-based
Mus musculus [10] = assay: Protection against APAP-induced hepatotoxicity in C57BL/6 mouse assessed as increase in GSH/GSSG ratio in liver at 10 to 40 mg/kg, ip treated 2 hrs prior to 22 hrs starvation followed by APAP challenge and measured after 6 hrs; format: functional, organism-based
[11] = target: T1, Nuclear factor erythroid 2-related factor 2 (Homo sapiens); assay: Activation of Nrf2 in human L02 cells harboring control siRNA assessed as increase in HO-1 expression at 10 uM measured after 10 hrs by Western blot analysis; format: cell-based
L02 [12] = assay: Upregulation of HO-1 mRNA expression in human L02 cells harboring Nrf2 siRNA at 10 uM measured after 10 hrs by trizol reagent based qRT-PCR analysis; format: functional, cell-based
L02 [13] = assay: Upregulation of GCLM mRNA expression in human L02 cells harboring Nrf2 siRNA at 10 uM measured after 10 hrs by trizol reagent based qRT-PCR analysis; format: functional, cell-based
Mus musculus [14] = assay: Protection against APAP-induced hepatotoxicity in C57BL/6 mouse assessed as decrease in IL1beta production at 10 mg/kg, ip treated 2 hrs prior to 22 hrs starvation followed by APAP challenge and measured after 6 hrs; format: functional, organism-based
L02 [15] = assay: Upregulation of NEFL2L expression in human L02 cells harboring Nrf2 siRNA at 10 uM measured after 10 hrs by Western blot analysis; format: functional, cell-based
Mus musculus [16] = assay: Protection against APAP-induced hepatotoxicity in C57BL/6 mouse assessed as decrease in Nrf2 expression in liver at 10 to 40 mg/kg, ip treated 2 hrs prior to 22 hrs starvation followed by APAP challenge and measured after 6 hrs by Dako/Mayer's hematoxylin staining-based immunohistochemical analysis; format: functional, organism-based
L02 [17] = assay: Cytoprotective activity against APAP-induced oxidative stress in human L02 cells assessed as increase in GSH/GSSG ratio at 5 to 10 uM preincubated for 12 hrs followed by APAP stimulation and measured after 24 hrs; format: functional, cell-based
Mus musculus [18] = assay: Protection against APAP-induced hepatotoxicity in C57BL/6 mouse assessed as reduction in liver apoptosis at 10 to 40 mg/kg, ip treated 2 hrs prior to 22 hrs starvation followed by APAP challenge and measured after 6 hrs by TUNEL assay; format: functional, organism-based
L02 [19] = assay: Upregulation of NQO-1 mRNA expression in human L02 cells harboring Nrf2 siRNA at 10 uM measured after 10 hrs by trizol reagent based qRT-PCR analysis; format: functional, cell-based
[20] = target: T1, Nuclear factor erythroid 2-related factor 2 (Homo sapiens); assay: Activation of Nrf2 in human L02 cells harboring control siRNA assessed as increase in GCLM mRNA expression at 10 uM measured after 10 hrs by trizol reagent based qRT-PCR analysis; format: cell-based
[21] = target: T1, Nuclear factor erythroid 2-related factor 2 (Homo sapiens); assay: Activation of Nrf2 in human L02 cells assessed as increase in NEFL2L expression at 10 uM measured after 4 to 72 hrs hrs by Western blot analysis; format: cell-based
[22] = target: T1, Nuclear factor erythroid 2-related factor 2 (Homo sapiens); assay: Activation of Nrf2 in human L02 cells assessed as increase in GCLM mRNA expression at 10 uM measured after 8 to 24 hrs by trizol reagent based qRT-PCR analysis; format: cell-based
Mus musculus [23] = assay: Protection against APAP-induced hepatotoxicity in C57BL/6 mouse assessed as decrease in IL6 production at 10 mg/kg, ip treated 2 hrs prior to 22 hrs starvation followed by APAP challenge and measured after 6 hrs; format: functional, organism-based
Mus musculus [24] = assay: Protection against APAP-induced hepatotoxicity in C57BL/6 mouse assessed as decrease in TNFalpha production at 10 mg/kg, ip treated 2 hrs prior to 22 hrs starvation followed by APAP challenge and measured after 6 hrs; format: functional, organism-based
[25] = target: T1, Nuclear factor erythroid 2-related factor 2 (Homo sapiens); assay: Activation of Nrf2 in human L02 cells assessed as increase in HO-1 mRNA expression at 10 uM measured after 8 to 24 hrs by trizol reagent based qRT-PCR analysis; format: cell-based
Mus musculus [26] = assay: Protection against APAP-induced hepatotoxicity in C57BL/6 mouse assessed as decrease in MPO activity in liver at 10 to 40 mg/kg, ip treated 2 hrs prior to 22 hrs starvation followed by APAP challenge and measured after 6 hrs; format: functional, organism-based

## COc1ccc(S(=O)(=O)N(CC(=O)O)c2ccc(N3CCC[C@H]3C(=O)O)c3ccccc23)cc1
[1]
  Activity: Dose-dependent effect
[2]
  Activity: Active
L02 [3]
  Activity: Non-Toxic
[4]
  Activity: Active
L02 [5]
  Activity: inactive
[6]
  Activity: Dose-dependent effect
Mus musculus [7]
  Activity: Active
L02 [8]
  Activity: Active
L02 [9]
  Activity: inactive
Mus musculus [10]
  Activity: Active
[11]
  Activity: Active
L02 [12]
  Activity: inactive
L02 [13]
  Activity: inactive
Mus musculus [14]
  Activity: Active
L02 [15]
  Activity: inactive
Mus musculus [16]
  Activity: Active
L02 [17]
  Activity: Active
Mus musculus [18]
  Activity: Active
L02 [19]
  Activity: inactive
[20]
  Activity: Active
[21]
  Activity: Active
[22]
  Activity: Active
Mus musculus [23]
  Activity: Active
Mus musculus [24]
  Activity: Active
[25]
  Activity: Active
Mus musculus [26]
  Activity: Active
